Literature values in US20080070828A1, “Ace-Inhibitory Whey Hydrolysates” (FRIESLAND BRANDS B.V., priority 2004, published 2008).

Assays:
ACE = conditions: for Literature IC50 / IC50: ACE-inhibitory peptides from BLG; for IC50: read-out: Literature IC50
hypertensive rats = conditions: among 9 identified peptide sequences

Substance: f(32-40): ACE-inhibitory peptide from BLG (LDAQSAPLR; UniProt P02754 48-56, looked up, fragment)
- Literature IC50 (ACE): 616 µg/mL
- IC50 (ACE): 635 µM

Substance: f(142-146): ACE-inhibitory peptide from BLG (ALPMH; UniProt P02754 158-162, looked up, fragment)
- Literature IC50 (ACE): 296 µg/mL
- IC50 (ACE): 521 µM

Substance: Ile-Pro-Ala [f(78-80), BLG tripeptide]
- Literature IC50 (ACE): 42 µg/mL
- IC50 (ACE): 141 µM
- antihypertensive activity (hypertensive rats): strongest antihypertensive activity

Substance: f(9-14): ACE-inhibitory peptide from BLG (GLDIQK; UniProt P02754 25-30, looked up, fragment)
- Literature IC50 (ACE): 390 µg/mL
- IC50 (ACE): 580 µM

Substance: f(102-105): ACE-inhibitory peptide from BLG (YLLF; UniProt P02754 118-121, looked up, fragment)
- Literature IC50 (ACE): 95 µg/mL
- IC50 (ACE): 172 µM

Substance: f(106-111): ACE-inhibitory peptide from BLG (CMENSA; UniProt P02754 122-127, looked up, fragment)
- Literature IC50 (ACE): 515 µg/mL
- IC50 (ACE): 788 µM

Substance: f(94-100): ACE-inhibitory peptide from BLG (VLDTDYK; UniProt P02754 110-116, looked up, fragment)
- Literature IC50 (ACE): 807 µg/mL
- IC50 (ACE): 946 µM

Substance: f(142-148): peptide isolated from a trypsin hydrolysate of bovine BLG (ALPMHIR; UniProt P02754 158-164, looked up, fragment)
- IC50 (ACE): 43 µM
- IC50 reported in WO 01/85984 (ACE; single hydrolysis step with trypsin or bacterial protease, f142-148 as reference): 40 µg/mL

Substance: f(81-83): ACE-inhibitory peptide from BLG (VFK; UniProt P02754 97-99, looked up, fragment)
- Literature IC50 (ACE): 404 µg/mL
- IC50 (ACE): 1030 µM

Substance: f(15-20): ACE-inhibitory peptide from BLG (VAGTWY; UniProt P02754 31-36, looked up, fragment)
- Literature IC50 (ACE): 1170 µg/mL
- IC50 (ACE): 1680 µM

Substance: f(22-25): ACE-inhibitory peptide from BLG (LAMA; UniProt P02754 38-41, looked up, fragment)
- Literature IC50 (ACE): 430 µg/mL
- IC50 (ACE): 1060 µM

Substance: f(146-149): ACE-inhibitory peptide from BLG (HIRL; UniProt P02754 162-165, looked up, fragment)
- Literature IC50 (ACE): 620 µg/mL
- IC50 (ACE): 1150 µM
